Laboratory results published in patent US12702654B2, “Compositions and methods for treating homocystinuria and other conditions using polyamines” (THE REGENTS OF THE UNIVERSITY OF COLORADO, priority 2020, dated 2026).
“Also recorded” adds a separate entry of the source.

Columns and labels:
DHFR = assay: Western blotting of hepatic DHFR protein levels; assay type: in vivo, mouse; details: HO mice, betaine treated; not restored to control levels
Experimental: In other exemplary experiments, levels of DHFR were assessed using the HO mouse model in untreated and betaine treated mice. […] In addition, level of intensity of DHFR for wild type (WT), treated (HO+betaine) and untreated mice (HO) using the HCU mouse model was examined (FIG. 4B). It was noted that the level of DHFR in betaine treated mice was not restored to control levels and only about a 5-10% improvement was observed (FIG. 4B). (See FIGS. 4A-4B). As noted herein, Western blotting analysis of hepatic DHFR protein levels in WT and HO HCU mice. N=9 per group.

MAT1A = assay: Western blotting of hepatic MAT1A expression; assay type: in vivo, mouse; details: HO HCU mice, 30 g/l in drinking water ad libitum, one week
Experimental: (§1) To investigate the effects of these treatments upon the hepatic regulatory changes in enzyme expression induced by HCU, the human transgenic HO mouse model of HCU was used. In brief, experimental groups consisting of 8 HO mice on a C57BL/6J background and 8 C57BL/6J WT littermate control mice bred in house were used. Mice in both groups were male and aged between 3 and 4 months. Except where otherwise stated, all mice were maintained on standard chow. All diets were administered using a paired-feeding design to ensure isocaloric intake between all experimental groups and body weights were measured once per week. There was no significant difference in body weight between mice in any of the experimental groups. Betaine and taurine were in this example, both administered by dissolving these compounds in drinking water at 30 g/l (2% or 3% w/v) and were supplied ad libitum for one week. Treatment water was replenished twice per week.
These observations are the first to report betaine and taurine acting to regulate expression of these processes. Therefore, this observation supports that taurine alone or in combination with betaine and other treatments for genetic homocystinuria are viable options for avoiding dietary restraints and treating these conditions.

HO HCU mice = assay: Tail bleeding time / hypercoagulative phenotype in HO HCU mice; assay type: in vivo, mouse
Experimental: In another exemplary method, effect of polyamines (e.g. spermidine and spermine) on the hypercoagulative phenotype induced by HCU was assessed which is a measure of treatment for genetic HCU where rapid coagulation is a side effect of these conditions. In brief, mice containing both the human CBS transgene and no functional copy of the mouse equivalent gene were identified by PCR from the litters of progeny of 11181×MKO^+/− F1 mice backcrossed to MKO^+/− mice. These mice were designated as “human only” (HO) mice and used as a human model of HCU. […] In order to further investigate the possible therapeutic potential of polyamine (e.g. spermidine and spermine) therapy in HCU, WT and HO HCU mice were given either: […]; […] in drinking water given ad libitum; or drinking water (untreated, control). After one week, tail bleeding times were determined for untreated wild type (WT) control B6 mice and HO HCU mice from all treatment groups.

[1] = mouse, in vivo
Experimental: In another exemplary method, the transsulfuration pathway and methionine-folate cycle pathways, as show in the sematic illustrated in FIG. 18A, were assessed. In brief, three experimental groups (n=8 for each group) of male mice consisting of either untreated WT controls or HO HCU mice in the presence or absence of betaine treatment. Betaine was administered by dissolving the compound in drinking water at 30 g/l and was supplied ad libitum to the mice for one week. Treatment water was replenished twice per week.
as §1, with “Betaine and taurine were in this example, both administered by dissolving these compounds in drinking water at 30 g/l (2% or 3% w/v) and were supplied ad libitum for one week. Treatment water was replenished twice per week.” left out

[2] = test system: pro-inflammatory cytokines (TNF-α, IL-1β); assay: Pro-inflammatory cytokine expression in HO HCU mice; assay type: in vivo, mouse
Cbs null mouse = details: betaine treatment; cited from earlier work
[3] = HO HCU mice, prolonged betaine treatment

In the case of `C[N+](C)(C)CC(=O)O` [betaine, N,N,N-trimethylglycine], the “improvement of hepatic DHFR level” value (DHFR) is reported as 5-10%, the “hepatic MAT1a expression” value (MAT1A) is reported as “induced expression” and the hypercoagulative phenotype (HO HCU mice; betaine treatment (one week)) is reported as “significant amelioration of the hypercoagulative phenotype; also recorded: responded to betaine treatment”. The coagulation phenotype (HO HCU mice; prolonged betaine treatment) was “reversion to a hypercoagulative phenotype”, the tolerability of doses [1] was “well tolerated” and the “plasma levels of IL-1β” value [2, 3] was “significant increase”. For the same compound, the “plasma levels of TNF-α” value [2, 3] was “significant increase”, the pro-inflammatory cytokine expression ([2]; HO model, one week of betaine treatment) was “virtual ablation of most of the pro-inflammatory cytokine expression; also recorded: decrease pro-inflammatory cytokine expression” and the “Hcy in Cbs (−/−) mice” value (Cbs null mouse) was “without significantly lowering Hcy”. The “fertility of female Cbs (−/−) mice” value (Cbs null mouse) was “restored fertility”, the “severe liver injury, steatosis, and fibrosis in Cbs (−/−) mice” value (Cbs null mouse) was “not significantly improved” and the “survival of Cbs (−/−) mice” value (Cbs null mouse) was “improved survival”.
